According to US9931315B2, “Method of selectively inhibiting Ras-mediated tumor growth in humans” (ADT PHARMACEUTICALS, INC., priority 2014, dated 2018):
Where two headings read alike, the source gives them in different places.

Columns and labels:
DLD-1 cells = assay: Cell growth inhibition (CellTiter-Glo), DLD-1 colorectal cells; format: cell-based, human; details: known Ras pathway inhibitors, 384-well plates, Table 4
A549 lung cancer cells = assay: Cell growth inhibition (CellTiter-Glo ATP assay), A549 cells with mutant K-Ras; format: cell-based, human; details: for IC50: Homo sapiens, A549, 72 h, growth inhibition, three days treatment, K-Ras mutant lung cancer cells, read-out: A549 (Ras-activated) IC50; for Selectivity HT-29/A549: ratio IC50 HT-29 (WT Ras) / IC50 A549 (Ras-activated)
Procedure: This example illustrates cell growth assays employed in the present invention. Cells used in such assays included A-549, HT-29, MDA-MB-231, Colo-205, Caco2, HCT-116, SW-480, and DLD-1 human cancer cells obtained from the American Type Culture Collection (ATCC).
(§1) Human tumor cells were cultured using standard methods in RPMI-1640 growth medium supplemented with 5% fetal bovine serum (FBS). Normal rat kidney (NRK) and Ki-Ras transformed NRK cells (K-NRK) were obtained from ATCC, and were cultured according to supplier recommendations. CellTiter-Glo ATP cell growth assay reagents were obtained from Promega and used according to the manufacturer's protocol. Inhibitors of EGFR, Raf, and MEK were obtained from Selleck Chemicals. Cells were plated at a density of 5,000 cells per well in 96-well microplates or 1,250 cells per well in 384-well plates, and allowed to attach for at least 4 h. Test compounds were dissolved in dimethyl sulfoxide (DMSO), and this working stock was further diluted in growth medium for addition to cell cultures. Serial dilutions of the test compound were prepared in growth medium containing an equal amount of DMSO not exceeding 0.2% final concentration. Each compound concentration was tested in at least 3 separate samples per cell line. At the end of a 3-day treatment period, growth inhibition was analyzed using a bioluminescent assay of ATP concentration (Promega CellTiter-Glo) according to the manufacturer's protocol. Resulting luminescence was measured using the luminescence cartridge of the Molecular Devices Spectramax Paradigm microplate reader. Relative growth inhibition for each sample was determined by comparison with the values obtained for vehicle treated control samples. Growth inhibition values were plotted with the GraphPad Prism5 software using the 4-parameter logistic fit to obtain IC50 values, which corresponds to the growth inhibitory potency of the compound.
(§2) This example illustrates effects of exemplary compounds of the present invention on cancer cells having activated or mutated Ras compared to wild-type (WT) Ras. […] A549 lung cancer cells, which harbor a mutation in the K-Ras oncogene were treated for three days with the compounds.

HT-29 colon cancer cells = assay: Cell growth inhibition (CellTiter-Glo ATP assay), HT-29 cells with wild-type Ras; format: cell-based, human
Procedure: (§3) This example illustrates cell growth assays employed in the present invention.
as §1, with “Normal” for “Human tumor cells were cultured using standard methods in RPMI-1640 growth medium supplemented with 5% fetal bovine serum (FBS). Normal”
as §2
(§4) Cells were seeded in 384-well plates and allowed to attach. Ten-fold serial dilutions of compounds were tested. Each compound concentration was tested in at least 3 separate samples per cell line.

SW-480 cells = assay: Cell growth inhibition (CellTiter-Glo), SW-480 colorectal cells with activated Ras; format: cell-based, human; details: for IC50: 384-well plates; for Selectivity Caco-2/SW-480: ratio IC50 Caco-2 (WT Ras) / IC50 SW-480 (Ras activated)
Procedure: as §3
as §1, with “Normal” for “Human tumor cells were cultured using standard methods in RPMI-1640 growth medium supplemented with 5% fetal bovine serum (FBS). Normal”
The growth inhibitory activity of the compounds was tested using the CellTiter-Glo assay. Cells were seeded in 384-well plates and allowed to attach, then ten-fold serial dilutions of compounds were tested. Each concentration was tested in at least 3 separate samples per cell line.
as §4

Caco-2 cells = assay: Cell growth inhibition (CellTiter-Glo), Caco-2 colorectal cells with wild-type Ras; format: cell-based, human; details: 384-well plates
[1] = tested on: HCT-116 colon tumor cells; assay: Cell growth inhibition (CellTiter-Glo), HCT-116 colon tumor cells expressing mutant Ras; format: cell-based, human; details: for HT-29/HCT-116 selectivity values: ratio IC50 HT-29 (WT Ras) / IC50 HCT-116 (mutant Ras), 5000 cells/well, 96-well plates
Procedure: This example illustrates cell growth assays employed in the present invention. […] Normal rat kidney (NRK) and Ki-Ras transformed NRK cells (K-NRK) were obtained from ATCC, and were cultured according to supplier recommendations. CellTiter-Glo ATP cell growth assay reagents were obtained from Promega and used according to the manufacturer's protocol. Inhibitors of EGFR, Raf, and MEK were obtained from Selleck Chemicals. Cells were plated at a density of 5,000 cells per well in 96-well microplates or 1,250 cells per well in 384-well plates, and allowed to attach for at least 4 h. Test compounds were dissolved in dimethyl sulfoxide (DMSO), and this working stock was further diluted in growth medium for addition to cell cultures. Serial dilutions of the test compound were prepared in growth medium containing an equal amount of DMSO not exceeding 0.2% final concentration. Each compound concentration was tested in at least 3 separate samples per cell line. At the end of a 3-day treatment period, growth inhibition was analyzed using a bioluminescent assay of ATP concentration (Promega CellTiter-Glo) according to the manufacturer's protocol. Resulting luminescence was measured using the luminescence cartridge of the Molecular Devices Spectramax Paradigm microplate reader. Relative growth inhibition for each sample was determined by comparison with the values obtained for vehicle treated control samples. […] This example illustrates use of well-established human colon tumor cell lines with widely divergent Ras activation status to determine selectivity values for exemplary compounds of the present invention. […] Cells were plated at 5000 cells/well in 96-well plates, and viable cell numbers were measured using the Cell Titer Glo ATP luminescence assay (Promega). […] Cells were seeded in 384-well plates and allowed to attach. Ten-fold serial dilutions of compounds were tested. Each compound concentration was tested in at least 3 separate samples per cell line.

[2] = tested on: cells expressing oncogenic H-Ras; details: NIH probe report, cited from earlier work
COLO-205 cells = assay: Cell growth inhibition (CellTiter-Glo), COLO-205 colorectal cells; format: cell-based, human; details: known Ras pathway inhibitors, 384-well plates, Table 4
[3] = tested on: panel of colorectal cancer cell lines; assay: Growth inhibition of known Ras pathway inhibitors across the colorectal cell line panel, pattern versus Ras activation; format: cell-based, human; details: HCT-116, DLD-1, SW-480, Caco-2, HT-29, COLO-205 panel
Procedure: This example illustrates non-selective growth inhibition with known Ras pathway inhibitors which are not compounds of the present invention. In particular, the growth inhibitory activity of commercially available compounds which are active in the Ras signal transduction pathway were tested in the same panel of cell lines using the CellTiter-Glo assay. Cells were seeded in 384-well plates and allowed to attach. Ten-fold serial dilutions of compounds were tested. Each compound concentration was tested in at least 3 separate samples per cell line.

[4] = Homo sapiens, HT-29, growth inhibition, colon cancer cells with wild-type Ras, Table 2, read-out: HT-29 (WT Ras) IC50
[5] = Homo sapiens, SW480, growth inhibition, Table 3, read-out: SW-480 (Ras Activated IC50)
[6] = Homo sapiens, Caco-2, growth inhibition, Table 3, read-out: Caco-2 (WT Ras) IC50

| IC50 (A549 lung cancer cells) [nM] | IC50 (HT-29 colon cancer cells; [4]) [nM] | IC50 (SW-480 cells; [5]) [nM] | IC50 (Caco-2 cells; [6]) [nM] | SMILES | Selectivity HT-29/A549 (A549 lung cancer cells) | Selectivity Caco-2/SW-480 (SW-480 cells) | HT-29/HCT-116 selectivity values [1] | other results |
| --- | --- | --- | --- | --- | --- | --- | --- | --- |
|  |  |  |  | Cn1cnc2c(F)c(Nc3ccc(Br)cc3Cl)c(C(=O)NOCCO)cc21 [Selumetinib] |  |  |  | IC50 (DLD-1 cells; Homo sapiens, DLD-1): 20400 nM |
| 15 | 2940 | 21.3 | 47.6 | COc1cc(/C=C2/C(C)=C(CC(=O)NCc3cccnc3)c3cc(F)ccc32)cc(OC)c1O [Compound 011, (Z)-2-(5-fluoro-1-(4-hydroxy-3,5-dimethoxybenzylidene)-2-methyl-1H-inden-3-yl)-N-(pyridin-3-ylmethyl)acetamide] | 196 | 2 | 168 |  |
| 170 | 712 | 2.1 | 33.8 | COc1cc(/C=C2/C(C)=C(CC(=O)NCc3ccccn3)c3cc(F)ccc32)cc(OC)c1O [Compound 010, (Z)-2-(5-fluoro-1-(4-hydroxy-3,5-dimethoxybenzylidene)-2-methyl-1H-inden-3-yl)-N-(pyridin-2-ylmethyl)acetamide] | 4 | 16 | 141 |  |
|  |  |  |  | Cc1onc(C(=O)N2CCN(C(c3ccc(Cl)cc3)c3ccc(Cl)cc3)CC2)c1[N+](=O)[O-] [ML210] |  |  |  | selectivity versus cells lacking oncogenic Ras [2]: 4 fold; IC50 ([2]; read-out: IC50, growth of cells expressing mutant Ras): 71 nM |
| 0.86 | 280 | 0.37 | 1.97 | COc1cc(/C=C2/C(C)=C(CC(=O)NCc3ccco3)c3cc(F)ccc32)cc(OC)c1O [Compound 007, (Z)-2-(5-fluoro-1-(4-hydroxy-3,5-dimethoxybenzylidene)-2-methyl-1H-inden-3-yl)-N-(furan-2-ylmethyl)acetamide] | 326 | 5 | 92 |  |
| 11 | 8130 | 2.85 | 428 | COc1ccc2c(c1)C(CC(=O)NCc1ccco1)=C(C)/C2=C/c1cc(OC)c(O)c(OC)c1 [Compound 006, (Z)—N-(furan-2-ylmethyl)-2-(1-(4-hydroxy-3,5-dimethoxybenzylidene)-5-methoxy-2-methyl-1H-inden-3-yl)acetamide] | 739 | 150 | 43 |  |
|  |  |  |  | O=C1Nc2ccc(I)cc2/C1=C/c1cc(Br)c(O)c(Br)c1 [GW5074, reference compound] |  |  |  | IC50 (HT-29 colon cancer cells; known Ras pathway inhibitors, 384-well plates, Table 4, read-out: HT-29 IC50): 19100 nM; IC50 (SW-480 cells; known Ras pathway inhibitors, Table 4, read-out: SW-480 IC50): 8070 nM; IC50 (Caco-2 cells; known Ras pathway inhibitors, Table 4, read-out: Caco-2 IC50): > 20000 nM; IC50 ([1]; known Ras pathway inhibitors, 384-well plates, Table 4): 15800 nM; IC50 (DLD-1 cells): 7750 nM; IC50 (COLO-205 cells): 7100 nM; selectivity with regard to Ras activation [3]: did not show selectivity |
